# In the SangsterLogP compilation:
# Test: method code SF-AS, from PMID: 4559156
# Conditions: pH 7.4
row,SMILES,logD
1,O=[N+]([O-])c1cnc(N=C2NCCO2)s1,0.57
2,O=[N+]([O-])c1cnc(N=C2NCC(O)CN2)s1 (stereo not given),0.74
3,O=[N+]([O-])c1cnc(NC2=NCCN2)s1,1.38
4,O=[N+]([O-])c1cnc(N=C2NCCN2CCO)s1,1.23
5,CC1CN(C)C(=Nc2ncc([N+](=O)[O-])s2)N1 (stereo not given),1.95
6,CC(=O)OCCN1CCS/C1=N/c1ncc([N+](=O)[O-])s1,1.88
7,CC1CNC(=Nc2ncc([N+](=O)[O-])s2)N1C (stereo not given),2.02
8,CCN1CCNC1=Nc1ncc([N+](=O)[O-])s1,2.28
9,CC1N=C(Nc2ncc([N+](=O)[O-])s2)OC1(C)C (stereo not given),1.88
10,O=[N+]([O-])c1cnc(/N=C2/SCCN2CCO)s1,1.28
11,O=[N+]([O-])c1cnc(/N=C2/OCCN2CCO)s1,0.43
12,CN1CC(O)CN(C)C1=Nc1ncc([N+](=O)[O-])s1 (stereo not given),0.16
13,CN1CCN(C)C1=Nc1ncc([N+](=O)[O-])s1,0.92
14,CC1(C)NC(=Nc2ncc([N+](=O)[O-])s2)OC1(C)C,2.4
15,CN1CCN=C1Nc1ncc([N+](=O)[O-])s1,1.8
